System: Plasmodium berghei
Assay: Luciferase/luciferin-expressing antifolate-resistant parasites were used to infect a culture of HepG2 cells that were pre-incubated with compounds. Infected hepatocytes emit light due to the luciferase reaction. Assay results are presented as the percent inhibition of light emission compared to control. […]
Format: functional
Conditions: sporozoite; for IC90: read-out: LUCIFERASE INFECTION ASSAY - IC90

Row | Structure (SMILES) | IC90 | other results
1 | Cc1ccc(C(=O)/C=C/C(=O)c2ccc(C)cc2)cc1 | > 10 µM | IC50 (FFLUC_HILL_SLOPE 1.4, FFLUC_R_SQUARED 0.731, read-out: LUCIFERASE INFECTION ASSAY - IC50): > 10 µM
2 | NC1=Nc2cccc3cccc(c23)N1 | 12.9 µM | IC50 (FFLUC_HILL_SLOPE 1.44, FFLUC_R_SQUARED 0.698, HEPG2TOX_HILL_SLOPE 2.55, HEPG2TOX_R_SQUARED 0.966, PBLUC_HILL_SLOPE 3.15, PBLUC_R_SQUARED 0.786, read-out: LUCIFERASE INFECTION ASSAY - IC50): 6.42 µM
3 | O=C(Nc1ccccc1)c1cn(-c2ccc3c(c2)OCCO3)nn1 | 5.96 µM | IC50 (FFLUC_HILL_SLOPE 1.49, FFLUC_R_SQUARED 0.912, PBLUC_HILL_SLOPE 0.315, PBLUC_R_SQUARED 0.673, read-out: LUCIFERASE INFECTION ASSAY - IC50): 0.00562 µM
4 | COC(=O)c1c(NC(=O)c2ccoc2)c2cc(NCCc3ccccc3)cnc2n1Cc1ccccc1 | > 6.67 µM | IC50 (FFLUC_HILL_SLOPE 1.52, FFLUC_R_SQUARED 0.257, PBLUC_HILL_SLOPE 25.4, PBLUC_R_SQUARED 0.141, read-out: LUCIFERASE INFECTION ASSAY - IC50): > 6.67 µM
5 | Cn1cnc([N+](=O)[O-])c1Sc1cccs1 | > 13.7 µM | IC50 (FFLUC_HILL_SLOPE 1.45, FFLUC_R_SQUARED 0.647, PBLUC_HILL_SLOPE 13.1, PBLUC_R_SQUARED 0.224, read-out: LUCIFERASE INFECTION ASSAY - IC50): > 13.7 µM
6 | O=C1C=CC(=O)N1c1ccc(Cl)cc1Br | 8.68 µM | IC50 (FFLUC_HILL_SLOPE 1.45, FFLUC_R_SQUARED 0.668, PBLUC_HILL_SLOPE 3.96, PBLUC_R_SQUARED 0.503, read-out: LUCIFERASE INFECTION ASSAY - IC50): 4.99 µM
7 | O=[N+]([O-])c1ccc2c(c1)nc(SCc1ccc(Cl)cc1Cl)n2-c1ccccc1 | > 10 µM | IC50 (FFLUC_HILL_SLOPE 1.41, FFLUC_R_SQUARED 0.219, read-out: LUCIFERASE INFECTION ASSAY - IC50): > 10 µM
8 | COc1ccc(C2C3CSc4ccccc4C3=NN2c2ccccc2)cc1 (centres undefined) | > 8.86 µM | IC50 (FFLUC_HILL_SLOPE 1.37, FFLUC_R_SQUARED 0.894, PBLUC_HILL_SLOPE 1.03, PBLUC_R_SQUARED 0.404, read-out: LUCIFERASE INFECTION ASSAY - IC50): 4.95 µM
9 | COc1ccccc1N1CCN(c2nc(=O)c3c([nH]2)CCC3)CC1 | 1.26 µM | IC50 (FFLUC_HILL_SLOPE 1.43, FFLUC_R_SQUARED 0.67, PBLUC_HILL_SLOPE 2.78, PBLUC_R_SQUARED 0.645, read-out: LUCIFERASE INFECTION ASSAY - IC50): 0.572 µM
10 | CCOC(=O)c1sc(N2N=C3/C(=C/c4ccccc4Cl)CCCC3C2c2ccccc2Cl)nc1C (centres undefined) | > 10 µM | IC50 (FFLUC_HILL_SLOPE 1.4, FFLUC_R_SQUARED 0.297, PBLUC_HILL_SLOPE 2.64, PBLUC_R_SQUARED 0.0563, read-out: LUCIFERASE INFECTION ASSAY - IC50): 4.97 µM
11 | Cc1cc(C(=O)NCc2nnc3ccccn23)c(C)n1C1CCCCC1 | 6.61 µM | IC50 (FFLUC_HILL_SLOPE 1.4, FFLUC_R_SQUARED 0.0106, PBLUC_HILL_SLOPE 1.41, PBLUC_R_SQUARED 0.709, read-out: LUCIFERASE INFECTION ASSAY - IC50): 1.39 µM
12 | CNC(=O)c1ccc(/C=C/C(=O)N(c2ccc(C)c(F)c2)c2nc3ccccc3s2)cc1 | 8.92 µM | IC50 (FFLUC_HILL_SLOPE 1.49, FFLUC_R_SQUARED 0.0757, PBLUC_HILL_SLOPE 4.44, PBLUC_R_SQUARED 0.348, read-out: LUCIFERASE INFECTION ASSAY - IC50): 5.44 µM
13 | COc1ccc(Nc2nccn3c(-c4cccc(C(=O)NCCO)c4)cnc23)cc1 | 4.59 µM | IC50 (FFLUC_HILL_SLOPE 1.47, FFLUC_R_SQUARED 0.89, PBLUC_HILL_SLOPE 0.68, PBLUC_R_SQUARED 0.895, read-out: LUCIFERASE INFECTION ASSAY - IC50): 0.181 µM
14 | O=C(Nc1ccccc1Sc1ncc([N+](=O)[O-])s1)c1cccs1 | > 9.08 µM | IC50 (FFLUC_HILL_SLOPE 1.44, FFLUC_R_SQUARED 0.479, read-out: LUCIFERASE INFECTION ASSAY - IC50): > 9.08 µM
15 | O=C1CCCN1c1ccc(C2=NNC(=NC3CC3)SC2)cc1 | 0.932 µM | IC50 (FFLUC_HILL_SLOPE 1.46, FFLUC_R_SQUARED 0.93, PBLUC_HILL_SLOPE 0.517, PBLUC_R_SQUARED 0.899, read-out: LUCIFERASE INFECTION ASSAY - IC50): 0.0133 µM
16 | CC(C)Cc1ccc(C(=O)CC2OC(=O)c3ccccc32)cc1 (centres undefined) | > 10.7 µM | IC50 (FFLUC_HILL_SLOPE 1.52, FFLUC_R_SQUARED 0.66, PBLUC_HILL_SLOPE 3.96, PBLUC_R_SQUARED 0.504, read-out: LUCIFERASE INFECTION ASSAY - IC50): 8.38 µM

Row | Structure (SMILES) | IC90 | other results
17 | O=C(O)c1ccc(Cl)cc1Oc1ccccc1 | > 13.3 µM | IC50 (FFLUC_HILL_SLOPE 1.52, FFLUC_R_SQUARED 0.302, read-out: LUCIFERASE INFECTION ASSAY - IC50): > 13.3 µM
18 | C=CCSc1nnc(NC(=O)C2Cc3ccccc3CN2S(=O)(=O)c2ccccc2F)s1 (centres undefined) | > 10 µM | IC50 (FFLUC_HILL_SLOPE 1.45, FFLUC_R_SQUARED 0.33, PBLUC_HILL_SLOPE 5.35, PBLUC_R_SQUARED 0.362, read-out: LUCIFERASE INFECTION ASSAY - IC50): 7.22 µM
19 | CC(C)(C)c1ccc(C(=O)Nc2ncccc2O)cc1 | 0.647 µM | IC50 (FFLUC_HILL_SLOPE 1.42, FFLUC_R_SQUARED 0.79, PBLUC_HILL_SLOPE 0.554, PBLUC_R_SQUARED 0.72, read-out: LUCIFERASE INFECTION ASSAY - IC50): 0.0122 µM
20 | CSc1nnnn1-c1cccc(NC(=O)c2cc(-c3cc(C)oc3C)nc3c2cnn3C(C)C)c1 | > 10 µM | IC50 (FFLUC_HILL_SLOPE 1.52, FFLUC_R_SQUARED 0.0983, PBLUC_HILL_SLOPE 1.97, PBLUC_R_SQUARED 0.288, read-out: LUCIFERASE INFECTION ASSAY - IC50): 5.3 µM
21 | C=c1ccccc1=C1NN=C(Nc2ccc(F)c(F)c2F)O1 | > 10 µM | IC50 (FFLUC_HILL_SLOPE 1.45, FFLUC_R_SQUARED 0.745, PBLUC_HILL_SLOPE 0.464, PBLUC_R_SQUARED 0.746, read-out: LUCIFERASE INFECTION ASSAY - IC50): 0.97 µM
22 | CCOc1ccc(C2=NNC(=Nc3cccc(S(=O)(=O)N(C)C)c3)SC2)cc1 | 4.99 µM | IC50 (FFLUC_HILL_SLOPE 1.45, FFLUC_R_SQUARED 0.572, HEPG2TOX_HILL_SLOPE 2.21, HEPG2TOX_R_SQUARED 0.976, PBLUC_HILL_SLOPE 3.43, PBLUC_R_SQUARED 0.708, read-out: LUCIFERASE INFECTION ASSAY - IC50): 2.63 µM
23 | CCN(CC)S(=O)(=O)c1cccc(C(=O)c2c(C)c(Sc3ccc(Cl)cc3)c3ccccn23)c1 | > 10 µM | IC50 (FFLUC_HILL_SLOPE 1.47, FFLUC_R_SQUARED 0.14, read-out: LUCIFERASE INFECTION ASSAY - IC50): > 10 µM
24 | O=C(Nc1nn2cc(-c3ccccc3)nc2s1)C1CCC1 | 1.39 µM | IC50 (FFLUC_HILL_SLOPE 1.5, FFLUC_R_SQUARED 0.884, PBLUC_HILL_SLOPE 0.386, PBLUC_R_SQUARED 0.673, read-out: LUCIFERASE INFECTION ASSAY - IC50): 0.0047 µM
25 | O=c1c(Cl)c(Cl)cnn1-c1cnc2ccccc2n1 | > 11.3 µM | IC50 (FFLUC_HILL_SLOPE 1.37, FFLUC_R_SQUARED 0.431, HEPG2TOX_HILL_SLOPE 2.28, HEPG2TOX_R_SQUARED 0.959, PBLUC_HILL_SLOPE 0.482, PBLUC_R_SQUARED 0.686, read-out: LUCIFERASE INFECTION ASSAY - IC50): 0.149 µM
26 | NC(=O)c1cc(-c2csc(NC(=O)Cc3ccc(Cl)c(Cl)c3)n2)c[nH]1 | > 10 µM | IC50 (FFLUC_HILL_SLOPE 1.47, FFLUC_R_SQUARED 0.0625, read-out: LUCIFERASE INFECTION ASSAY - IC50): > 10 µM
27 | c1cc2c(cc1C1=NNC(=NC3CC3)SC1)CCCC2 | 0.277 µM | IC50 (FFLUC_HILL_SLOPE 1.51, FFLUC_R_SQUARED 0.952, HEPG2TOX_HILL_SLOPE 2.86, HEPG2TOX_R_SQUARED 0.94, PBLUC_HILL_SLOPE 0.977, PBLUC_R_SQUARED 0.884, read-out: LUCIFERASE INFECTION ASSAY - IC50): 0.0292 µM
28 | Nc1ncc(-c2ccccc2Oc2ccccc2)cc1-c1ccc(O)cc1 | > 9.31 µM | IC50 (FFLUC_HILL_SLOPE 1.5, FFLUC_R_SQUARED 0.249, PBLUC_HILL_SLOPE 4.63, PBLUC_R_SQUARED 0.261, read-out: LUCIFERASE INFECTION ASSAY - IC50): 6.66 µM
29 | CCOc1ccc(OS(=O)(=O)c2ccc(-n3ncc(Cl)c(Cl)c3=O)cc2)cc1 | 3.34 µM | IC50 (FFLUC_HILL_SLOPE 1.43, FFLUC_R_SQUARED 0.409, HEPG2TOX_HILL_SLOPE 3.88, HEPG2TOX_R_SQUARED 0.973, PBLUC_HILL_SLOPE 4.23, PBLUC_R_SQUARED 0.659, read-out: LUCIFERASE INFECTION ASSAY - IC50): 1.99 µM
30 | O=c1c(Cl)c(Cl)cnn1-c1ccc(C(F)(F)F)cc1 | 5 µM | IC50 (FFLUC_HILL_SLOPE 1.51, FFLUC_R_SQUARED 0.59, HEPG2TOX_HILL_SLOPE 2.35, HEPG2TOX_R_SQUARED 0.929, PBLUC_HILL_SLOPE 2.87, PBLUC_R_SQUARED 0.611, read-out: LUCIFERASE INFECTION ASSAY - IC50): 2.33 µM
31 | O=C(Nc1cccc([N+](=O)[O-])c1)c1[nH]nc2ccccc12 | 2.96 µM | IC50 (FFLUC_HILL_SLOPE 1.37, FFLUC_R_SQUARED 0.513, PBLUC_HILL_SLOPE 0.728, PBLUC_R_SQUARED 0.84, read-out: LUCIFERASE INFECTION ASSAY - IC50): 0.145 µM
32 | COc1cccc(N2C(=O)C=CC2=O)c1 | > 16.2 µM | IC50 (FFLUC_HILL_SLOPE 1.51, FFLUC_R_SQUARED 0.52, PBLUC_HILL_SLOPE 2.51, PBLUC_R_SQUARED 0.451, read-out: LUCIFERASE INFECTION ASSAY - IC50): 10.2 µM

Source: ChEMBL document CHEMBL4483862, “Open-source discovery of chemical leads for next-generation chemoprotective antimalarials” (2018)
